Values of other authors in patent publication US7939308B2, “Bio-based method for making mannitol” (The United States of America as represented by the …, priority 2002, dated 2011).
≈ marks a conversion by molar mass, not a printed value.

Settings: at 25° C.

solubility limit: 180 mg/mL (≈ 988 mM)
Compound: OC[C@@H](O)[C@@H](O)[C@H](O)[C@H](O)CO [mannitol, Mannitol]
